PMC5335257, “Promoting in vivo remyelination with small molecules: a neuroreparative pharmacological treatment for Multiple Sclerosis” (Scientific Reports, 2017)
Entries after “also recorded” stand apart in the source; their conditions may differ.

Columns and labels:
[1] = system: corpus callosum of cuprizone-fed mice; assay: In vivo remyelination, cuprizone demyelination model; design: species or system C57/BL6 male mice
Experimental: The protocol used was modified from previously described. Demyelination was induced by feeding 8 weeks old male C57/BL6 mice ad libitum with 0.2% cuprizone (bis-cyclo-hexanone-oxaldihydrazone; Sigma) mixed with milled chow (Altromin) for 5 weeks. A control group was maintained in the same conditions but fed with the chow without cuprizone. After cuprizone withdrawal, mice were intraperitoneally injected on 3 alternate days with PDE7-GSK3 inhibitors (VP1.15 or VP3.15; 10 mg/kg of animal) using a solution of the compound (100 mg/mL in DMSO) diluted 1:50 in a solution of 5% Tocrisolve (Tocris, UK) in distilledwater[36] or with the vehicle. 1 week after the cuprizone withdrawal, mice were transcardially perfused with 4% PFA in phosphate buffer. Another group was maintained for 3 weeks after cuprizone withdrawal and injected with 3 doses per week on alternate days of the PDE7-GSK3 inhibitors (10 mg/kg of animal per dose see above) or the vehicle and then perfused. The corpus callosum of three animals per condition was studied. For histological examination, forebrain coronal sections (20 μm) were taken of the rostral part of the corpus callosum as previously described[80][81] and stained with eriochrome cyanine using a standard protocol in order to study the myelin. Briefly, cryosections on glass slides were immersed in acetone for 5 minutes, dried and submerged in eriochrome cyanine solution (Sigma) for 1 hour and then differentiated in 5% (w/v) iron alum for 5–10 minutes, followed by a second differentiation with borax-ferricyanide solution for 5 minutes. The stained area was measured with the Image J software and related to the total analyzed area. For the immunofluorescence analysis, tissue sections were stained with anti-MBP (1:200; Serotec; Cat#MCA4095) for myelin, anti-PDGFRα (1:200; Santa Cruz; Cat#sc338) for OPCs, anti-CC1 (1:100; Calbiochem, Cat#OP80) and anti-GFAP (Glial fibrillary acidic protein; 1:200; Dako; Cat#Z0334) for astrocytes, and tomato lectin (TL; 1:67; Sigma; Cat#L0651) for microglia. Optical images were acquired using an Olympus BX61 microscope and fluorescence images were taken using a DFC480 FX digital camera (Leica) coupled to a Leica DM5000 B microscope or a confocal SP5 resonant scanner (Leica). Myelin staining (with MBP and eriochrome cyanine) and CC1 staining were quantified by taking pictures of non-overlapping fields of coronal sections of the corpus callosum, between the lateral ventricles (2 fields per section, 5–6 sections of each mice; using a x20 objective) and by measuring the fluorescence intensity or blue staining using the Image J software. The number of OPCs per field was also counted in pictures of the midline of the corpus callosum using the x40 objective (4–6 sections per mice). Astrocytes and microglia were evaluated in pictures of the same area of the corpus callosum using the x40 objective and quantified by measuring the area occupied by GFAP or TL staining respectively using the Image J software (4–6 sections per mice). Data were expressed as the mean ± SEM.

[2] = system: corpus callosum of LPC-injected mice; assay: In vivo remyelination, LPC demyelination model; design: species or system C57/BL6 male mice; conditions: 10 mg/kg i.p. from 9 dpi
Experimental: Anaesthetized 8 week old C57/BL6 male mice were injected with 2 μl of 1% LPC through a hole drilled in the skull at stereotactic coordinates 1.2 mm posterior, 0.5 mm lateral, 1.4 mm deep to the bregma over 4 minutes using a 30-gauge needle attached to a Hamilton syringe, driven by a KD Scientific Nano pump, for 4 minutes to reduce backflow as previously described. At 9 days post injection (dpi), the first intraperitoneal dose of PDE7-GSK3 inhibitors (VP1.15 or VP3.15; 10 mg/kg of animal) was injected using the same solution detailed above for the cuprizone model. Each inhibitor was injected into a group of 10 mice and another group of 10 mice was injected with the vehicle. Two days after, a second dose was injected (11 dpi) and 5 mice of each group were perfused at 14 dpi with 4% PFA and 2% glutaraldehyde (GTA) in phosphate buffer. The remaining 5 animals of each group received a third injection of inhibitors (15 dpi) and were perfused at 21 dpi. A control group of 3 non-lesioned and non-treated mice was used as control. Fixed brains were post-fixed in 1% GTA for 7 days and then coronally cut into 1 mm slices. The slices containing the injected areas were selected and the area of interest was cut and processed for electron microscopy into a resin (Araldite/TAAB 812 Resin Kit, TAAB) following manufacturer instructions.
In order to detect the injured areas for investigation, sagittal semi-thin sections (1 μm) were cut using an ultramicrotome (Leica) and stained with toluidine blue. Ultra-thin sections (60 nm thick) were cut and stained in uranyl acetate and lead citrate and the ultrastructure was analysed taking images with a GatanOrius CCD camera coupled to a transmission electronic microscope (Philips CM120). The percentage of myelinated fibres and the thickness of myelin sheaths were examined. The mean percentage of myelinated fibres was measured from 10 fields per animal. Grids were overlaid onto the images and all axons intersecting with the grid lines were counted as myelinated or not[83][84]. The thickness of myelin around myelinated fibres was expressed as a g-ratio (axon perimeter divided by myelinated fibre perimeter) using ImageJ by tracing around a minimum of 100 individual fibres per mouse, using a pen and electronic pad (Bamboo pad, Wacom). To select the fibres randomly, a grid composed by 8 μm[2] squares was overlaid onto the images and fibres in alternate squares were measured. Data were expressed as the mean ± SEM.

PDE7 = system: PDE7; design: method as in PMID 24437940; conditions: read-out: PDE7 inhibition IC50; cited from earlier work

c1ccc(-c2n/c(=N/CCN3CCOCC3)sn2-c2ccccc2)cc1 [VP3.15]
myelin staining (eriochrome cyanine) in corpus callosum vs vehicle ([1]; 10 mg/kg i.p. on 3 alternate days, 1 week after cuprizone withdrawal): significantly higher myelin staining; also recorded: almost complete remyelination
myelin quantification by MBP immunodetection ([1]; 10 mg/kg i.p., after cuprizone withdrawal): confirmed these results, with similar effects
microglial activation (TL staining) vs vehicle ([1]; 1 week after cuprizone withdrawal): Neither VP1.15 nor VP3.15 induced changes
number of OPCs (PDGFRα+ cells) vs vehicle ([1]; one week after cuprizone withdrawal): significantly lower number of OPCs
thickness of myelin sheaths (G-ratio) vs untreated demyelinated control [2]: increased the thickness
percentage of myelinated callosal fibers vs vehicle ([2]; analysed at 14 or 21 dpi): did not show any effect
IC50 (PDE7): 1.59 µM
